Test results from patent US20240130988A1, “Use of stilbene compounds in the preparation of anti-tumor drugs” (Guangzhou AnHao Pharmaceutical Technology CO., LTD., priority 2022, published 2024).

What was measured:
[1] = tested on: human liver cancer Bel7404; assay: Compound 3 combined with lenvatinib, human liver cancer Bel7404 xenograft in nude mice; format: in vivo; conditions: po: lenvatinib 10 mg/kg, compound 3 400 mg/kg, combination 10 + 400
Text: Experimental method: The model of human liver cancer Bel7404 transplant tumor in nude mice was established by subcutaneously inoculating human liver cancer Bel7404 cell lines into the armpits of nude mice. Cells were inoculated in an amount of 1×10^6, and after formation of the transplanted tumors by inoculation, the cells were passed 3 generations in nude mice before use. The vigorous growth of tumor tissue was cut into approximate 1.5 mm^3, and homogenized under sterile conditions, to prepare 1×10^7/mL of cell suspension. 0.1 mL of cell suspension was subcutaneously inoculated into the right armpit of nude mice. For transplanted tumors in nude mice, the diameter of the transplanted tumor was measured with vernier caliper. After the tumor grew to 100 mm^3, the animals were randomly divided into groups, with 6 animals in each group. Using the method of measuring tumor diameter, the anti-tumor effect of test compound was dynamically observed. Compound 3 was orally administered at 400 mg/kg, once a day, for three weeks; lenvartinib was also orally administered at 10 mg/kg, once a day, for two weeks. The measurement frequency of tumor diameter was once every three days. The animals in the negative control group were orally given an equal amount of physiological saline. The effect of combined medicaments was evaluated based on the Q value calculated by the Jin's formula: […]
Ea+b represents the tumor inhibitory rate of the combined medicaments, while Ea and Eb represent the tumor inhibitory rates of medicament A and medicament B, respectively. For example, the Q value of 0.85-1.15 means additive action (+), and the Q value of >1.15 means synergistic action (++).

[2] = tested on: human liver cancer QGY7703; assay: Compound 6 combined with T cells, human liver cancer QGY7703 model in NOG mice; format: in vivo; conditions: 8 × 10^6 T cells sc, compound 6 200 mg/kg ip, or both
Method: Experimental method: QGY7703 tumor cells were washed twice with PBS, and then resuspended with PBS:Matrix (1:1 mixture by volume). The cell concentration was adjusted to 2.5×10^6/mL, and subcutaneously inoculated to the right armpit of experimental animals at 200 μL/mouse, i.e. 5×10^5 cells/mouse. When the tumor grew to about 50 mm^3, the mice were divided into groups for administration.
T cell culture and harvest: PBMCs of donors were activated and expanded in vitro according to the standard operating procedures for T cell culture. The cells in logarithmic growth phase were harvested and suspended in the medium at a moderate dose (2×10^7/mL) for future use.
T cells were administrated by subcutaneous injection, and the injection site was the same as the inoculation site of tumor cells.
The general conditions, body weight, tumor volume, and tumor weight of mice were recorded every 3 days. Based on the status of the tumor, whether EAL was further injected was decided.
The effect of combined medicaments was evaluated based on the Q value calculated by Jin's formula: […]
Ea+b represents the tumor inhibitory rate of the combined medicaments, while Ea and Eb represent the tumor inhibitory rates of medicament A and medicament B, respectively.

[3] = tested on: human lung cancer 95D and human liver cancer Bel7404; assay: In vivo vascular necrosis of tumors, PCNA immunohistochemistry; set-up: species or system nude mice; conditions: 400 mg/kg
[4] = tested on: ocular surface neovascularization; assay: Neovascularization of ocular surface in rats (NaOH cornea model); format: in vivo, SD rats; conditions: 50 μL/eye, 3 times/day, 10 days
Method: Four SD rats, regardless of gender, were subjected to single eye modeling, with a total of four eye models. One eye was used as a blank control (untreated group), one eye was used as a model control, one eye was used as treatment group 1, and one eye was used as treatment group 2.
The rats were anesthetized with pentobarbital sodium (25-30 mg/(kg, intraperitoneal injection), and two drops of oxybuprocaine hydrochloride eye drops were administrated to both eyes for ocular surface anesthesia. 30 μL of NaOH solution (1 mol/L) was placed with a pipette on a dry filter paper with a diameter of approximate 3 mm for 10 seconds. The moistened circular filter paper was gently applied to the center of the cornea (covering the corneoscleral margin) of the model eye, and a tight fit was kept for suitable time. The filter paper was removed, and then physiological saline was used to wash the eye, which was rinsed with a needle for 1 minute. After operation, ofloxacin eye ointment was applied to prevent infection (3 times/day, for 5 days).
On the 5th day (D5), neovascularization began to appear, and D5 was the first day of administrating the test compound (d1). Three eye drops were administered daily for 10 consecutive days (d10). […] After completion of the experiment, the rats were euthanized.
Blank control group (untreated group): no any treatment, no modeling, no administration. […]

human lung cancer A549 = assay: Compound 8 combined with carboplatin, human lung cancer A549 xenograft in nude mice; format: in vivo; conditions: ip: carboplatin 10 mg/kg, compound 8 200 mg/kg, combination 10 + 200
Text: Experimental method: The model of human lung cancer A549 transplant tumor in nude mice was established by subcutaneously inoculating human lung cancer A549 cell lines into the armpits of nude mice. Cells were inoculated in an amount of 1×10^6, and after formation of the transplanted tumors by inoculation, the cells were passed 3 generations in nude mice before use. The vigorous growth of tumor tissue was cut into approximate 1.5 mm^3, and homogenized under sterile conditions, to prepare 1×10^7/mL of cell suspension. 0.1 mL of cell suspension was subcutaneously inoculated into the right armpit of nude mice. For transplanted tumors in nude mice, the diameter was measured with vernier caliper. After the tumor grew to 100 mm^3, the animals were randomly divided into groups, with 6 mice in each group. Using the method of measuring tumor diameter, the anti-tumor effect of test compound was dynamically Observed. Compound 8 was administered at 200 mg/kg by intraperitoneal injection, once every other day, for three weeks; carboplatin was administered at 10 mg/kg by intraperitoneal injection, once every other day, for three weeks. The measurement frequency of tumor diameter was once every three days. The dosage by volume was 0.1 mL/20 g. The mice in the negative control group were given an equal amount of physiological saline by intravenous injection. The effect of combined medicaments was evaluated based on the Q value calculated by Jin's formula: […]
Ea+b represents the tumor inhibitory rate of the combined medicaments, while Ea and Eb represent the tumor inhibitory rates of medicament A and medicament B, respectively. For example, the Q value of 0.85-1.15 means additive action (+), while the Q value of >1.15 means synergistic action (++).

Compound: COc1cc(/C=C(/C(=O)O)c2cc(OC)c(OC)c(OC)c2)cc(OC)c1 [Compound 3, (E)-3-(3,5-dimethoxyphenyl)-2-(3,4,5-trimethoxyphenyl)acrylic acid]
- RTV (d 21) [1]: 3.54 ± 1.87
- Terminal weight [1]: 22.4 ± 0.6 g
- Tumor inhibitory rate % [1]: 68.47%

Compound: COc1ccc(/C=C(/C(=O)O)c2cc(OC)c(OC)c(OC)c2)cc1O [Compound 6, (E)-3-(3-hydroxy-4-methoxyphenyl)-2-(3,4,5-trimethoxyphenyl)acrylic acid]
- RTV(d 32) [2]: 19.62 ± 3.17
- Terminal weight [2]: 24.5 ± 0.9 g
- Tumor inhibitory rate % [2]: 39.61%
- Damage to the blood vessels of tumors (PCNA immunohistochemistry) ([3]; 4 h after oral administration): only some vascular endothelial cells proliferated in the tumor tissues
- Damage to the blood vessels of tumors (PCNA immunohistochemistry) ([3]; 24 h after oral administration): massive blood flow blockade and necrosis of tumor tissues
- Vascularization area ([4]; high-dose group, eye drops 25 mg/mL): significantly decreased
- Neovascularization of the ocular surface ([4]; treatment groups, eye drops 10 or 25 mg/mL, vs model group): reduced compared to the model group

Compound: COc1cc(/C(=C\c2cc(O)c(OC)c(F)c2)C(=O)O)cc(OC)c1OC [Compound 8, (E)-3-(5-fluoro-3-hydroxy-4-methoxyphenyl)-2-(3,4,5-trimethoxyphenyl)acrylic acid]
- RTV (d 21) (human lung cancer A549): 4.85 ± 1.37
- Tumor inhibitory rate % (human lung cancer A549): 62.32%
